Publication PMC7003846, “Effects of the ventilatory stimulant, doxapram on human TASK‐3 (KCNK9, K2P9.1) channels and TASK‐1 (KCNK3, K2P3.1) channels” (Acta Physiologica (Oxford, England), 2019)

What was measured:
TASK-3_L122D = target: T1, TASK-3_L122D (Homo sapiens, UniProt Q9NPC2, L122D); experiment: Whole-cell patch clamp, human TASK-3 pore mutant L122D; assay type: cell-based; details: 10 µM (Figure 6C); read-out: percentage inhibition of TASK-3_L122D
T1 construct: expressed in transfected cells; host or cells: tsA201 (modified HEK293), transient transfection
T1 sequence (Q9NPC2 whole entry L122D): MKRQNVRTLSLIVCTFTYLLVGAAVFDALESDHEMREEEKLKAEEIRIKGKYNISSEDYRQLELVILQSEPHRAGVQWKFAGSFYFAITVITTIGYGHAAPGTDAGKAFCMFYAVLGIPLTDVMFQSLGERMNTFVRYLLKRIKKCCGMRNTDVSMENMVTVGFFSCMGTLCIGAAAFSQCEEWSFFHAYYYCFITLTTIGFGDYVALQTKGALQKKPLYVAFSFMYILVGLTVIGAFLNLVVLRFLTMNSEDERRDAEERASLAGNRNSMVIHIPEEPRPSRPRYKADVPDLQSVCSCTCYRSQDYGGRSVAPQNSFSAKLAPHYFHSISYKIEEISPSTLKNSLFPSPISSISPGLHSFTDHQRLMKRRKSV
Description: (§1) Murine (mur) wild‐type (WT) TASK‐1 (KCNK3, Genbank^TM DQ185133) and WT murTASK‐3 (KCNK9, Genbank^TM AH009585.2) cDNA were cloned into pCS2^+ vector and were a kind gift from William Wisden (Imperial College, UK). Human WT TASK‐1 (Genbank^TM AF006823.1), WT TASK‐3 (Genbank^TM AF212829) and WT TASK‐2 (KCNK5, Genbank^TM AF084830.1) cDNA’s, were cloned into pcDNA3.1^+ vector (Invitrogen) and were a kind gift from Helen Meadows (GlaxoSmithKline).
(§2) Point mutations (L122D, G236D, L239D, V242D or a stop codon) were introduced by site‐directed mutagenesis into TASK‐3 cDNA using the Quikchange kit (Stratagene) as previously described.54 […]
(§3) Currents were recorded from tsA201 cells transiently transfected with the channel of interest using whole‐cell patch clamp in a voltage clamp configuration and a step‐ramp voltage protocol as previously described.54 Briefly, all experiments were conducted at room temperature (20‐24°C) using an external solution composed of 145 mM of NaCl, 2.5 mM of KCL, 3 mM of MgCl2, 1 mM of CaCl2 and 10 mM of HEPES (pH 7.4, using NaOH) and an intracellular pipette solution composed of 150 mM of KCL, 3 mM of MgCl2, 5 mM of EGTA and 10 mM of HEPES (pH adjusted to 7.4 with KOH). […] Currents were recorded using an Axopatch 1D patch clamp amplifier (Molecular Devices), filtered at 0.3 kHz, digitized at 1 kHz. […]

[1] = target: T2, murTASK-3/murTASK-1 heterodimer channels (Mus musculus, UniProt O35111+Q3LS21); experiment: Whole-cell patch clamp, forced heterodimer murTASK-3/murTASK-1; assay type: cell-based
T2 construct: expressed in transfected cells; host or cells: tsA201 (modified HEK293), transient transfection
T2 sequence (Q3LS21 whole entry): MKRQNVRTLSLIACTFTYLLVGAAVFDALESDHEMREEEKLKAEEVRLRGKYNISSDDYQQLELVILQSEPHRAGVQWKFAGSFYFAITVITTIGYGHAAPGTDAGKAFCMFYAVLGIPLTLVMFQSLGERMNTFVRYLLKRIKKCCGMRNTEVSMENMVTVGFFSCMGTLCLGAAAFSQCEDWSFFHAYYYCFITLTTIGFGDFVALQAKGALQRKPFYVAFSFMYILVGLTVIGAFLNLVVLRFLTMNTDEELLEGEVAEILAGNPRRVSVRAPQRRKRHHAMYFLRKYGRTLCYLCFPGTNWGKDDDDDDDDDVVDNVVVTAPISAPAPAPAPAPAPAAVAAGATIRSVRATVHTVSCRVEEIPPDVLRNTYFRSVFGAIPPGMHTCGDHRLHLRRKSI
T2 sequence (O35111 whole entry): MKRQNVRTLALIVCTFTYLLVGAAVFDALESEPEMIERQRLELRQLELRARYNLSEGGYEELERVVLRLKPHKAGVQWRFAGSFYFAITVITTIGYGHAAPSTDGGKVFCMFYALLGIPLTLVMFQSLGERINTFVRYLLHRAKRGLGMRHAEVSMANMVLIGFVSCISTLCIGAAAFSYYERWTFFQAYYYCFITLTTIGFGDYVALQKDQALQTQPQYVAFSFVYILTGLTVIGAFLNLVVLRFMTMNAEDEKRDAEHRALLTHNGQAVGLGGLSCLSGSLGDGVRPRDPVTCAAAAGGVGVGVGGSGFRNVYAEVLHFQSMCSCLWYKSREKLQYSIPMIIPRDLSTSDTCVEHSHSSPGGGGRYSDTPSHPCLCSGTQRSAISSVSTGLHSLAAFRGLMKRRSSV
Method: as §1
(§4) All experiments were performed using a modified human embryonic kidney 293 cell line, tsA201 (ECACC; Sigma‐Aldrich), prepared and maintained as previously described.54 […]
(§5) Currents were recorded from tsA201 cells transiently transfected with the channel of interest using whole‐cell patch clamp in a voltage clamp configuration and a step‐ramp voltage protocol as previously described.54 Briefly, all experiments were conducted at room temperature (20‐24°C) using an external solution composed of 145 mM of NaCl, 2.5 mM of KCL, 3 mM of MgCl2, 1 mM of CaCl2 and 10 mM of HEPES (pH 7.4, using NaOH) and an intracellular pipette solution composed of 150 mM of KCL, 3 mM of MgCl2, 5 mM of EGTA and 10 mM of HEPES (pH adjusted to 7.4 with KOH). […] Currents were recorded using an Axopatch 1D patch clamp amplifier (Molecular Devices), filtered at 0.3 kHz, digitized at 1 kHz.
(§6) For analysis of outward current, we measured the current difference between the −80 and −40 mV. […]

human TASK-2 = target: T3, human TASK-2 (Homo sapiens, UniProt O95279); experiment: Whole-cell patch clamp on tsA201 cells expressing cloned human TASK-2; assay type: cell-based; details: acute application, read-out: inhibition of WT TASK-2 current
T3 construct: expressed in transfected cells; host or cells: tsA201 (modified HEK293), transient transfection, pcDNA3.1+
T3 sequence (O95279 1-499): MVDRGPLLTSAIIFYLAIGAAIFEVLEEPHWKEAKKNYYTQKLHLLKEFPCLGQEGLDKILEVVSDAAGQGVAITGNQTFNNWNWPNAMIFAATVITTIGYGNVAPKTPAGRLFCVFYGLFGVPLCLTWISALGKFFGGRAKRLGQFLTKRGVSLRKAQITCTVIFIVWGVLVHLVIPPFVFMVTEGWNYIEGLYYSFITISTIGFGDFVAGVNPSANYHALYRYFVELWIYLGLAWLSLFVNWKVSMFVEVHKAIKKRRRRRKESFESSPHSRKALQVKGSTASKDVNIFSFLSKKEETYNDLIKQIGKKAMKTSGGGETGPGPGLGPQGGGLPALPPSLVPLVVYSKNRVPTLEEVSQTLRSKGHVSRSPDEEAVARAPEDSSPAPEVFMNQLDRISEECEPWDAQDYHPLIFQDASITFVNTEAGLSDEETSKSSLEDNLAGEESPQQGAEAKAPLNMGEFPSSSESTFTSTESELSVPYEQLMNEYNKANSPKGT
Method: as §1, §4, §5, §6

human TASK-1 = target: T4, human TASK-1 (Homo sapiens, UniProt O14649); experiment: Whole-cell patch clamp on tsA201 cells expressing cloned human TASK-1; assay type: cell-based
T4 construct: expressed in transfected cells; host or cells: tsA201 (modified HEK293), transient transfection, pcDNA3.1+
T4 sequence (O14649 whole entry): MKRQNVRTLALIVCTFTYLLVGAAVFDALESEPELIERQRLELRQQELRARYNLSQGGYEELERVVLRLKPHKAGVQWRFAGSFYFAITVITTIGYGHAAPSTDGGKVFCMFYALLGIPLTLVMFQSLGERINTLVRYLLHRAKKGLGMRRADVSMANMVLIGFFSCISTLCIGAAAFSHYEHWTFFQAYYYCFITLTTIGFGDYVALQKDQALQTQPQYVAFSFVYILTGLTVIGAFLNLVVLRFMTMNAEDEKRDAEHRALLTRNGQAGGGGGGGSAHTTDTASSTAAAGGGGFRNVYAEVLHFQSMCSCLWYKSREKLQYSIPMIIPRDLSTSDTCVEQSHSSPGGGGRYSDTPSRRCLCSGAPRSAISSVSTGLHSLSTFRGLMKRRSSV
Method: as §1
(§7) All experiments were performed using a modified human embryonic kidney 293 cell line, tsA201 (ECACC; Sigma‐Aldrich), prepared and maintained as previously described.54
(§8) For the electrophysiological experiments, cells were transiently transfected using a modified calcium phosphate protocol, following a process as previously described.54 Vectors cloned with the gene of interest and a similar vector encoding the cDNA for GFP were added to each well at a concentration of 0.5 µg per well, with the exception being for murTASK‐3, where 0.125 µg per well was used.
(§9) Currents were recorded from tsA201 cells transiently transfected with the channel of interest using whole‐cell patch clamp in a voltage clamp configuration and a step‐ramp voltage protocol as previously described.54 Briefly, all experiments were conducted at room temperature (20‐24°C) using an external solution composed of 145 mM of NaCl, 2.5 mM of KCL, 3 mM of MgCl2, 1 mM of CaCl2 and 10 mM of HEPES (pH 7.4, using NaOH) and an intracellular pipette solution composed of 150 mM of KCL, 3 mM of MgCl2, 5 mM of EGTA and 10 mM of HEPES (pH adjusted to 7.4 with KOH). External solution and modulatory compounds were superfused at a rate of 4‐5 mL min^−1. Currents were recorded using an Axopatch 1D patch clamp amplifier (Molecular Devices), filtered at 0.3 kHz, digitized at 1 kHz.
(§10) For analysis of outward current, we measured the current difference between the −80 and −40 mV. The current‐voltage graphs were obtained from the ramp change in voltage between −120 and +20 mV. For each cell, the current amplitude (pA) was normalized to the cell capacitance (pF). The currents obtained were analysed using pCLAMP 10.2 software (Molecular Devices), Microsoft Excel and GraphPad Prism 6 or 7 software. Data were expressed as the mean ± 95% Confidence Intervals (CI), and n represents the number of individual cells. For EC50 calculations, concentration‐response curves were fitted using the Hill equation. Statistical analysis used were one‐way ANOVA with a post‐hoc Dunnett's test or an unpaired/paired Student's t test. Data were considered statistically different if P < .05. The data and statistical analysis comply with the recommendations on experimental design and analysis in pharmacology.55

[2] = system: rat TASK-1 homodimeric channels; details: cited from earlier work
human TASK-3 = target: T5, human TASK-3 (Homo sapiens, UniProt Q9NPC2); experiment: Whole-cell patch clamp on tsA201 cells expressing cloned human TASK-3; assay type: cell-based
T5 construct: expressed in transfected cells; host or cells: tsA201 (modified HEK293), transient transfection, pcDNA3.1+
T5 sequence (Q9NPC2 whole entry): as the sequence (Q9NPC2 whole entry L122D) above, with D122L counted along it
Method: as §1, §7, §8, §9, §10

murTASK-1 = target: T6, murTASK-1 (Mus musculus, UniProt O35111); experiment: Whole-cell patch clamp on tsA201 cells expressing cloned mouse TASK-1; assay type: cell-based
T6 construct: expressed in transfected cells; host or cells: tsA201 (modified HEK293), transient transfection, pCS2+
T6 sequence (O35111 whole entry): as the sequence (O35111 whole entry) above
Method: as §1, §7, §8, §9, §10

TASK-3_G236D = target: T7, TASK-3_G236D (Homo sapiens, UniProt Q9NPC2, G236D); experiment: Whole-cell patch clamp, human TASK-3 pore mutant G236D; assay type: cell-based; details: 10 µM (Figure 6C); read-out: percentage inhibition of TASK-3_G236D
T7 construct: expressed in transfected cells; host or cells: tsA201 (modified HEK293), transient transfection
T7 sequence (Q9NPC2 whole entry G236D): as the sequence (Q9NPC2 whole entry L122D) above, with D122L, G236D counted along it
Description: as §1, §2, §3

TASK-3_V242D = target: T8, TASK-3_V242D (Homo sapiens, UniProt Q9NPC2, V242D); experiment: Whole-cell patch clamp, human TASK-3 pore mutant V242D; assay type: cell-based; details: 10 µM (Figure 6C); read-out: percentage inhibition of TASK-3_V242D
T8 construct: expressed in transfected cells; host or cells: tsA201 (modified HEK293), transient transfection
T8 sequence (Q9NPC2 whole entry V242D): as the sequence (Q9NPC2 whole entry L122D) above, with D122L, V242D counted along it
Description: as §1, §2, §3

TASK-3_L239D = target: T9, TASK-3_L239D (Homo sapiens, UniProt Q9NPC2, L239D); experiment: Whole-cell patch clamp, human TASK-3 pore mutant L239D; assay type: cell-based; details: 10 µM (Figure 6C); read-out: percentage inhibition of TASK-3_L239D
T9 construct: expressed in transfected cells; host or cells: tsA201 (modified HEK293), transient transfection
T9 sequence (Q9NPC2 1-374 L239D): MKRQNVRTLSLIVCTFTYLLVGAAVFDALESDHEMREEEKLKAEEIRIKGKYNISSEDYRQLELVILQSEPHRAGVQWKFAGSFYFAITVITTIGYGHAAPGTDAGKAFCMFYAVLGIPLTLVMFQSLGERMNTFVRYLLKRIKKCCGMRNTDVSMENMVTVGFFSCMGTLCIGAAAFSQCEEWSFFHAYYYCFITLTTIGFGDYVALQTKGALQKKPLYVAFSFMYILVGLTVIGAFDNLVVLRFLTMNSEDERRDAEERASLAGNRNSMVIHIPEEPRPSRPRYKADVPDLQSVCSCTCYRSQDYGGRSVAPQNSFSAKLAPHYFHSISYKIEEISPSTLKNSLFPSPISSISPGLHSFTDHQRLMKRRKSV
Description: as §1, §2, §3

murTASK-3 = target: T10, murTASK-3 (Mus musculus, UniProt Q3LS21); experiment: Whole-cell patch clamp on tsA201 cells expressing cloned mouse TASK-3; assay type: cell-based
T10 construct: expressed in transfected cells; host or cells: tsA201 (modified HEK293), transient transfection, pCS2+
T10 sequence (Q3LS21 whole entry): as the sequence (Q3LS21 whole entry) above
Method: as §1, §7, §8, §9, §10

[3] = system: rat TASK-3 homodimeric channels; details: cloned rat channels; cited from earlier work
murT3_Δ250 = target: T11, murT3_Δ250 (Mus musculus, UniProt Q3LS21); experiment: Whole-cell patch clamp, C-terminally truncated mouse TASK-3; assay type: cell-based
T11 construct: Removal of the carboxy terminal of murTASK‐3 (murT3) attenuates doxapram effect further; expressed in transfected cells; host or cells: tsA201 (modified HEK293), transient transfection
T11 sequence (Q3LS21 1-249 limits assumed, stated change not applied): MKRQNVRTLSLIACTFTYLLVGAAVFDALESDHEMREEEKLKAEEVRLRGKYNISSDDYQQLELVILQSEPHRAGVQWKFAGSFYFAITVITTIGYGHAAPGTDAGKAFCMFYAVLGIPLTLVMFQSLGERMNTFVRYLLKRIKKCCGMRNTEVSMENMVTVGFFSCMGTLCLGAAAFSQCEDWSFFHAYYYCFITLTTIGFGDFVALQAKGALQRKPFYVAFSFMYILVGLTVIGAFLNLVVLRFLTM
Description: as §1, §2, §3

[4] = system: rat TASK-1/TASK-3 heterodimeric channels; details: cloned rat channels; cited from earlier work
[5] = target: T12, murTASK-1/murTASK-3 heterodimer channels (Mus musculus, UniProt O35111+Q3LS21); experiment: Whole-cell patch clamp, forced heterodimer murTASK-1/murTASK-3; assay type: cell-based
T12 construct: expressed in transfected cells; host or cells: tsA201 (modified HEK293), transient transfection
T12 sequence (O35111 whole entry): as the sequence (O35111 whole entry) above
T12 sequence (Q3LS21 whole entry): as the sequence (Q3LS21 whole entry) above
Method: as §1, §4, §5, §6

hTASK-3_Δ250 = target: T13, hTASK-3_Δ250 (Homo sapiens, UniProt Q9NPC2); experiment: Whole-cell patch clamp, C-terminally truncated human TASK-3; assay type: cell-based
T13 construct: truncating the channel to remove the C‐terminal of the human TASK‐3 channel (hTASK‐3_Δ250); expressed in transfected cells; host or cells: tsA201 (modified HEK293), transient transfection
T13 sequence (Q9NPC2 1-249 limits assumed, stated change not applied): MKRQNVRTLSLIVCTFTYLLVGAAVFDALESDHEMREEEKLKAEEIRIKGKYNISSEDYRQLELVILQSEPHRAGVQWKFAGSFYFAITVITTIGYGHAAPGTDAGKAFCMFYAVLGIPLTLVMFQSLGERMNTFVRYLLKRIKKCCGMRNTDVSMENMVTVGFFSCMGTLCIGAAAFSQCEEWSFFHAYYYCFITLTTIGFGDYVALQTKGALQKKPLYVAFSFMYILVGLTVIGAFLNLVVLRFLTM
Description: as §1, §2, §3

[6] = concentration-response 0.3-100 µM

inhibition at 10 µM (TASK-3_L122D): 6%
inhibition at 10 µM [1]: 42%
inhibition at 10 µM (human TASK-2): 7%
recovery from inhibition of TASK-1 (human TASK-1; 10 µM, washout): slow and mostly incomplete
Hill slope, human TASK-1 (human TASK-1; [6]): 0.8
inhibition at 10 µM (human TASK-1; tsA201, 10 µM, acute application, read-out: inhibition of human TASK-1 current): 55%
EC50 (human TASK-1; tsA201 cells, whole-cell patch clamp, room temperature, read-out: EC50, inhibition of human TASK-1 current): 4 µM
inhibition of human TASK-3 current (human TASK-3; 10 µM, acute application, WT): 62%
recovery from inhibition of TASK-3 (human TASK-3; 10 µM, washout): faster and more complete
Hill slope, human TASK-3 (human TASK-3; [6]): 0.8
inhibition at 10 µM (human TASK-3; tsA201, 10 µM, acute application, WT, read-out: inhibition of human TASK-3 current): 68%
EC50 (human TASK-3; tsA201 cells, whole-cell patch clamp, room temperature, read-out: EC50, inhibition of human TASK-3 current): 2.5 µM
EC50 (murTASK-1; calculated from concentration-response curve, read-out: 50% effective concentration, murTASK-1): 1.5 µM
inhibition at 1 µM (murTASK-1; tsA201, 1 µM, acute application, read-out: current inhibition of murTASK-1): 28%
inhibition at 3 µM (murTASK-1; tsA201, 3 µM, acute application, read-out: current inhibition of murTASK-1): 43%
inhibition at 10 µM (murTASK-1; tsA201, 10 µM, acute application, read-out: current inhibition of murTASK-1): 58%
inhibition at 10 µM (TASK-3_G236D): 26%
inhibition at 10 µM (TASK-3_V242D): 27%
inhibition at 10 µM (TASK-3_L239D): 13%
EC50 (murTASK-3; estimated, read-out: 50% effective concentration, murTASK-3): ≥ 100 µM
inhibition at 10 µM (murTASK-3; tsA201, 10 µM, acute application, read-out: current inhibition of murTASK-3): 21%
inhibition at 100 µM (murTASK-3; tsA201, 100 µM, acute application, read-out: current inhibition of murTASK-3): 56%
inhibition at 10 µM (murT3_Δ250): 4%
inhibition at 10 µM [5]: 58%
inhibition at 10 µM (hTASK-3_Δ250): 19%
SMILES: CCN1CC(CCN2CCOCC2)C(c2ccccc2)(c2ccccc2)C1=O (centres unmarked) [doxapram, 1‐ethyl‐4‐(2‐morpholinoethyl)‐3,3‐diphenyl‐2‐pyrrolidinone]
EC50 ([2]; cloned rat channels): 0.41 µM
fold more potent on TASK-1 or heteromultimers of TASK-1 and TASK-3 than on TASK-3 ([2]; rat channels): 90 fold
EC50 [3]: 37 µM
EC50 [4]: 9 µM
